Data set [1] relates to stomach (gastric peristalsis). Put plainly: Testing of the gastric peristalsis (measurements of the gastric pressure). The note with it: for inhibition in vivo at 20 mg/kg: Rattus norvegicus, ip, read-out: Frequency decrease in %. The format is in vivo, rats.
Text: To determine the functioning of the gastric peristalsis, rats weighing about 200 g. are narcotized by means of ketamine hydrochloride and xylazine. A catheter is introduced into the Vena jugularis of the narcotized rats and a tracheal catheter into their trachea. A stomach probe is inserted into their stomach and tied thereto. Said probe is connected via a three-way cock with a Statham pressure imparting device (P 23 DB). The stomach is sealed off by a ligature at the pylorus and at the cardia. The stomach is filled with 3 ml. of an 0.9% aqueous sodium chloride solution. The pressure waves produced by the stomach are continuously registered by a suitable recording device such as by a Watanabe Multicorder (MC 641). In order to determine the effect of the compounds to be tested, they are dissolved in physiological sodium chloride solution or are suspended in Tylose MH 50 solution. Said solutions or suspensions are administered intraperitoneally to the rats in a dosis of 20 mg./kg. The amplitudes and frequencies of the pressure wave-like movements of the stomach as they occur before and after administration of the compound to be tested, are compared.
Data set [2] in a line: Determination of the acute toxicity (seven-day, single intraperitoneal dose). The note with it: in vivo, ip, white NMRI mouse, fasting, single i.p. dose, probit analysis. As to the method: The acute seven-day toxicity is determined by intraperitoneal administration of a single dose of the respective compound to a fasting white NMRI mouse. The LD50 -values are calculated via EDV by a probit analysis as described in the book "Grundbegriffe der Biometrie" (Basic biometrical definitions) by L. Cavalli-Sforza, page 153 et seq., published by Gustav Fischer Verlag, Stuttgart, 1964.

Setting [3] is: gastric pressure waves, narcotized rats, 20 mg./kg. intraperitoneally, before vs after administration.

Results on twelve compounds are retold here after US4374846A, “N-Amino alkyl indole compounds compositions containing same, and a method of using same in therapy of disorders of gastrointestinal motility” (Kali-Chemie Pharma GmbH, priority 1979, dated 1983).

Where two headings read alike, the source gives them in different places.

Regarding `COC(=O)c1c(OC)c2ccccc2n1CCN(C)C.Cl` [(A), 1-(β-Dimethylaminoethyl)-2-methoxy carbonyl-3-methoxy-indole hydrochloride], in data set [1] (setting [3]), the inhibition in vivo at 20 mg/kg stood at 3.3% and the “Factor of the increase in amplitude” value amounted to 6.2. Moreover, the LD50 at 168 h in data set [2] is 171 mg/kg.
Turning to `COC(=O)c1c(OC)c2ccc(C)cc2n1CCN(C)C.Cl` [(B), 1-(β-dimethylaminoethyl)-2-methoxy carbonyl-3-methoxy-6-methyl indole hydrochloride], in data set [1] (setting [3]), the inhibition in vivo at 20 mg/kg came out at 7% and the “Factor of the increase in amplitude” value came out at 22.7. Besides, the LD50 at 168 h in data set [2] is 68 mg/kg.
The matching figures for `CCOc1c(C(=O)OC)n(CCN(C)C)c2ccc(Cl)cc12.Cl` [(C), 1-(β-dimethylaminoethyl)-2-methoxy carbonyl-3-ethoxy-5-chloro indole hydrochloride]: 9%, 1.4 and 141 mg/kg.
As to `COC(=O)c1c(OC(C)C)c2cc(C)ccc2n1CCN(C)C.Cl` [(D), 1-(β-dimethylaminoethyl)-2-methoxy carbonyl-3-isopropyloxy-5-methyl indole hydrochloride], in data set [1] (setting [3]), the inhibition in vivo at 20 mg/kg is 19% and the “Factor of the increase in amplitude” value turned out to be 6.9. This compound also gave an LD50 at 168 h in data set [2] of 137 mg/kg.
As for `COC(=O)c1c(OCc2ccccc2)c2cc(Cl)ccc2n1CCN(C)C.Cc1ccc(S(=O)(=O)O)cc1` [(E), 1-(β-dimethylaminoethyl)-2-methoxy carbonyl-3-benzyloxy-5-chloroindole toluene-4-sulfonate], the inhibition in vivo at 20 mg/kg in data set [1] is -2%. Further, the “Factor of the increase in amplitude” value in data set [1] (setting [3]) came out at 0.6. The same compound showed an LD50 at 168 h in data set [2] of 283 mg/kg.
For the compound `CCOC(=O)c1c(OCC)c2ccc(Cl)cc2n1CCN(C)C.Cc1ccc(S(=O)(=O)O)cc1` [(F), 1-(β-dimethylaminoethyl)-2-ethoxy carbonyl-3-ethoxy-6-chloro indole toluene-4-sulfonate], in data set [1], the inhibition in vivo at 20 mg/kg is 5%. The “Factor of the increase in amplitude” value in data set [1] (setting [3]) was determined as 10.9. For the same compound, the 50% lethal dose (LD50) at 168 h in data set [2] is 226 mg/kg.
Regarding `COC(=O)c1c(OC)c2ccccc2n1CCCNC(C)C.Cl` [(G), 1-(γ-isopropylaminopropyl)-2-methoxy carbonyl-3-methoxy indole hydrochloride], in data set [1] (setting [3]), the inhibition in vivo at 20 mg/kg was found to be 29% and the “Factor of the increase in amplitude” value was found to be 8.3. Moreover, the LD50 at 168 h in data set [2] was found to be 91 mg/kg.
On to `COC(=O)c1c(OC)c2ccccc2n1CCCCN(C)C.Cc1ccc(S(=O)(=O)O)cc1` [(H), 1-(δ-dimethylaminobutyl)-2-methoxy carbonyl-3-methoxy indole toluene-4-sulfonate], for which, in data set [1], the inhibition in vivo at 20 mg/kg was determined as 11%. In data set [1] (setting [3]), the “Factor of the increase in amplitude” value amounted to 3.5. For the same compound, the LD50 at 168 h in data set [2] worked out at 164 mg/kg.
On to `COC(=O)c1c(OC)c2ccccc2n1CCCN1CCCCC1` [(I), 1-(γ-N-piperidinopropyl)-2-methoxy carbonyl-3-methoxy indole maleinate], for which, in data set [1] (setting [3]), the inhibition in vivo at 20 mg/kg was 15% and the “Factor of the increase in amplitude” value amounted to 8.6. Also, in data set [2], the LD50 at 168 h stood at 141 mg/kg.
`COc1c(C(=O)O)n(CCN(C)C)c2ccccc12` [(K), 1-(β-dimethylaminoethyl)-2-hydroxy carbonyl-3-methoxy indole]: in data set [1] (setting [3]), the inhibition in vivo at 20 mg/kg was 21% and the “Factor of the increase in amplitude” value came to 3.6. This compound also had an LD50 at 168 h in data set [2] of 967 mg/kg.
For the compound `COc1c(C(N)=O)n(CCN(C)C)c2ccccc12` [(L), 1-(β-dimethylaminoethyl)-2-amino carbonyl-3-methoxy indole], in data set [1] (setting [3]), the inhibition in vivo at 20 mg/kg turned out to be 28% and the “Factor of the increase in amplitude” value is on record as 13.9. The compound further returned an LD50 at 168 h in data set [2] of 68 mg/kg.
The matching figures for `CNC(=O)c1c(OC)c2ccccc2n1CCN(C)C` [(M), 1-(β-dimethylaminoethyl)-2-methylamino carbonyl-3-methoxy indole]: 13%, 21.4 and 68 mg/kg.

By LD50 is commonly meant the dose at which mortality reaches 50%. Higher therefore signals a less toxic substance.
